In patent US20100099561A1, “HETEROBICYCLIC ALKYLTHIO-BRIDGED ISOXAZOLINES” (E.I. DU PONT DE NEMOURS AND COMPANY, priority 2008, published 2010):

Assays:
Type in all cases: in vivo
[1] = tested on: wheat (Triticum aestivum); assay: Test A preemergence, wheat; conditions: 0 to 100 scale (0 no effect, 100 complete control)
Excerpt: (§1) Seeds of barnyardgrass (Echinochloa crus-galli), large crabgrass (Digitaria sanguinalis), giant foxtail (Setaria faberi), morningglory (Ipomoea spp.), pigweed (Amaranthus retroflexus), velvetleaf (Abutilon theophrasti), wheat (Triticum aestivum), and corn (Zea mays) were planted into a blend of loam soil and sand and treated preemergence with a directed soil spray using test chemicals formulated in a non-phytotoxic solvent mixture which included a surfactant. At the same time these species were also treated with postemergence applications of test compounds formulated in the same manner. Plants ranged in height from two to ten cm and were in the one- to two-leaf stage for the postemergence treatment. Treated plants and untreated controls were maintained in a greenhouse for approximately ten days, after which time all treated plants were compared to untreated controls and visually evaluated for injury. Plant response ratings, summarized in Table A, are based on a 0 to 100 scale where 0 is no effect and 100 is complete control. A dash (-) response means no test result.

[2] = tested on: velvetleaf (Abutilon theophrasti); assay: Test A postemergence, velvetleaf; conditions: 0 to 100 scale (0 no effect, 100 complete control)
Excerpt: as §1

[3] = tested on: giant foxtail (Setaria faberi); assay: Test A postemergence, giant foxtail; conditions: 0 to 100 scale (0 no effect, 100 complete control)
Excerpt: as §1

[4] = tested on: morningglory (Ipomoea spp.); assay: Test A postemergence, morningglory; conditions: 0 to 100 scale (0 no effect, 100 complete control)
Excerpt: as §1

[5] = tested on: pigweed (Amaranthus retroflexus); assay: Test A preemergence, pigweed; conditions: 0 to 100 scale (0 no effect, 100 complete control)
Excerpt: as §1

[6] = tested on: large crabgrass (Digitaria sanguinalis); assay: Test A preemergence, large crabgrass; conditions: 0 to 100 scale (0 no effect, 100 complete control)
Excerpt: as §1

[7] = tested on: umbrella sedge (Cyperus difformis); assay: Test B flooded paddy test, umbrella sedge; conditions: Flood, scale 0 to 100
Excerpt: (§2) Plant species in the flooded paddy test consisted of rice (Oryza sativa), umbrella sedge (Cyperus difformis), ducksalad (Heteranthera limosa) and barnyardgrass (Echinochloa crus-galli) grown to the 2-leaf stage for testing. At time of treatment, test pots were flooded to 3 cm above the soil surface, treated by application of test compounds directly to the paddy water, and then maintained at that water depth for the duration of the test. Treated plants and controls were maintained in a greenhouse for 13 to 15 days, after which time all species were compared to controls and visually evaluated. Plant response ratings, summarized in Table B, are based on a scale of 0 to 100 where 0 is no effect and 100 is complete control. A dash (-) response means no test result.

[8] = tested on: corn (Zea mays); assay: Test A preemergence, corn; conditions: 0 to 100 scale (0 no effect, 100 complete control)
Excerpt: as §1

[9] = tested on: large crabgrass (Digitaria sanguinalis); assay: Test A postemergence, large crabgrass; conditions: 0 to 100 scale (0 no effect, 100 complete control)
Excerpt: as §1

[10] = tested on: barnyardgrass (Echinochloa crus-galli); assay: Test A preemergence, barnyardgrass; conditions: 0 to 100 scale (0 no effect, 100 complete control)
Excerpt: as §1

[11] = tested on: velvetleaf (Abutilon theophrasti); assay: Test A preemergence, velvetleaf; conditions: 0 to 100 scale (0 no effect, 100 complete control)
Excerpt: as §1

[12] = tested on: pigweed (Amaranthus retroflexus); assay: Test A postemergence, pigweed; conditions: 0 to 100 scale (0 no effect, 100 complete control)
Excerpt: as §1

[13] = tested on: barnyardgrass (Echinochloa crus-galli); assay: Test A postemergence, barnyardgrass; conditions: 0 to 100 scale (0 no effect, 100 complete control)
Excerpt: as §1

[14] = tested on: ducksalad (Heteranthera limosa); assay: Test B flooded paddy test, ducksalad; conditions: Flood, scale 0 to 100
Excerpt: as §2

[15] = tested on: morningglory (Ipomoea spp.); assay: Test A preemergence, morningglory; conditions: 0 to 100 scale (0 no effect, 100 complete control)
Excerpt: as §1

[16] = tested on: giant foxtail (Setaria faberi); assay: Test A preemergence, giant foxtail; conditions: 0 to 100 scale (0 no effect, 100 complete control)
Excerpt: as §1

[17] = tested on: barnyardgrass (Echinochloa crus-galli); assay: Test B flooded paddy test, barnyardgrass; conditions: Flood
Excerpt: as §2

[18] = tested on: corn (Zea mays); assay: Test A postemergence, corn; conditions: 0 to 100 scale (0 no effect, 100 complete control)
Excerpt: as §1

[19] = tested on: rice (Oryza sativa); assay: Test B flooded paddy test, rice; conditions: Flood, scale 0 to 100
Excerpt: as §2

[20] = tested on: wheat (Triticum aestivum); assay: Test A postemergence, wheat; conditions: 0 to 100 scale (0 no effect, 100 complete control)
Excerpt: as §1

[21] = 250 g ai/ha, scale 0 to 100 (0 no effect, 100 complete control)

Cn1c(=O)c(C[S+]([O-])C2=NOC(C)(C)C2)nc2ccccc21 (stereo not shown) [Compound 24]
Plant response rating, Wheat ([1]; 125 g ai/ha): 0
Plant response rating, Wheat ([1]; 500 g ai/ha): 0
Plant response rating, Velvetleaf ([2]; 125 g ai/ha): 0
Plant response rating, Velvetleaf ([2]; 500 g ai/ha): 0
Plant response rating, Foxtail, Giant ([3]; 125 g ai/ha): 0
Plant response rating, Foxtail, Giant ([3]; 500 g ai/ha): 0
Plant response rating, Morningglory ([4]; 125 g ai/ha): 0
Plant response rating, Morningglory ([4]; 500 g ai/ha): 0
Plant response rating, Pigweed ([5]; 125 g ai/ha): 0
Plant response rating, Pigweed ([5]; 500 g ai/ha): 0
Plant response rating, Crabgrass, Large ([6]; 125 g ai/ha): 0
Plant response rating, Crabgrass, Large ([6]; 500 g ai/ha): 0
Plant response rating, Sedge, Umbrella ([7]; 62 g ai/ha): 20
Plant response rating, Sedge, Umbrella ([7]; 250 g ai/ha): 30
Plant response rating, Corn ([8]; 125 g ai/ha): 0
Plant response rating, Corn ([8]; 500 g ai/ha): 0
Plant response rating, Crabgrass, Large ([9]; 125 g ai/ha): 0
Plant response rating, Crabgrass, Large ([9]; 500 g ai/ha): 0
Plant response rating, Barnyardgrass ([10]; 125 g ai/ha): 0
Plant response rating, Barnyardgrass ([10]; 500 g ai/ha): 0
Plant response rating, Velvetleaf ([11]; 125 g ai/ha): 0
Plant response rating, Velvetleaf ([11]; 500 g ai/ha): 0
Plant response rating, Pigweed ([12]; 125 g ai/ha): 0
Plant response rating, Pigweed ([12]; 500 g ai/ha): 0
Plant response rating, Barnyardgrass ([13]; 125 g ai/ha): 0
Plant response rating, Barnyardgrass ([13]; 500 g ai/ha): 0
Plant response rating, Ducksalad ([14]; 62 g ai/ha): 0
Plant response rating, Ducksalad ([14]; 250 g ai/ha): 30
Plant response rating, Morningglory ([15]; 125 g ai/ha): 0
Plant response rating, Morningglory ([15]; 500 g ai/ha): 0
Plant response rating, Foxtail, Giant ([16]; 125 g ai/ha): 0
Plant response rating, Foxtail, Giant ([16]; 500 g ai/ha): 0
Plant response rating, Barnyardgrass ([17]; 62 g ai/ha, scale 0 to 100): 0
Plant response rating, Barnyardgrass [17, 21]: 0
Plant response rating, Corn ([18]; 125 g ai/ha): 0
Plant response rating, Corn ([18]; 500 g ai/ha): 0
Plant response rating, Rice ([19]; 62 g ai/ha): 30
Plant response rating, Rice ([19]; 250 g ai/ha): 30
Plant response rating, Wheat ([20]; 125 g ai/ha): 0
Plant response rating, Wheat ([20]; 500 g ai/ha): 0

CC1(C)CC([S+]([O-])Cc2c(C(F)(F)C(F)(F)F)nc3n(c2=O)CCC3)=NO1 (stereo not shown) [Compound 27]
Plant response rating, Wheat ([1]; 125 g ai/ha): 0
Plant response rating, Wheat ([1]; 500 g ai/ha): 50
Plant response rating, Velvetleaf ([2]; 125 g ai/ha): 0
Plant response rating, Velvetleaf ([2]; 500 g ai/ha): 40
Plant response rating, Foxtail, Giant ([3]; 125 g ai/ha): 40
Plant response rating, Foxtail, Giant ([3]; 500 g ai/ha): 70
Plant response rating, Morningglory ([4]; 125 g ai/ha): 0
Plant response rating, Morningglory ([4]; 500 g ai/ha): 40
Plant response rating, Pigweed ([5]; 125 g ai/ha): 0
Plant response rating, Pigweed ([5]; 500 g ai/ha): 0
Plant response rating, Crabgrass, Large ([6]; 125 g ai/ha): 70
Plant response rating, Crabgrass, Large ([6]; 500 g ai/ha): 90
Plant response rating, Sedge, Umbrella ([7]; 31 g ai/ha): 0
Plant response rating, Sedge, Umbrella ([7]; 62 g ai/ha): 0
Plant response rating, Sedge, Umbrella ([7]; 125 g ai/ha): 0
Plant response rating, Sedge, Umbrella ([7]; 250 g ai/ha): 0
Plant response rating, Corn ([8]; 125 g ai/ha): 0
Plant response rating, Corn ([8]; 500 g ai/ha): 0
Plant response rating, Crabgrass, Large ([9]; 125 g ai/ha): 40
Plant response rating, Crabgrass, Large ([9]; 500 g ai/ha): 80
Plant response rating, Barnyardgrass ([10]; 125 g ai/ha): 50
Plant response rating, Barnyardgrass ([10]; 500 g ai/ha): 90
Plant response rating, Velvetleaf ([11]; 125 g ai/ha): 0
Plant response rating, Velvetleaf ([11]; 500 g ai/ha): 60
Plant response rating, Pigweed ([12]; 125 g ai/ha): 0
Plant response rating, Pigweed ([12]; 500 g ai/ha): 30
Plant response rating, Barnyardgrass ([13]; 125 g ai/ha): 40
Plant response rating, Barnyardgrass ([13]; 500 g ai/ha): 70
Plant response rating, Ducksalad ([14]; 31 g ai/ha): 0
Plant response rating, Ducksalad ([14]; 62 g ai/ha): 0
Plant response rating, Ducksalad ([14]; 125 g ai/ha): 0
Plant response rating, Ducksalad ([14]; 250 g ai/ha): 0
Plant response rating, Morningglory ([15]; 125 g ai/ha): 0
Plant response rating, Morningglory ([15]; 500 g ai/ha): 0
Plant response rating, Foxtail, Giant ([16]; 125 g ai/ha): 60
Plant response rating, Foxtail, Giant ([16]; 500 g ai/ha): 90
Plant response rating, Barnyardgrass ([17]; 31 g ai/ha, scale 0 to 100): 0
Plant response rating, Barnyardgrass ([17]; 62 g ai/ha, scale 0 to 100): 0
Plant response rating, Barnyardgrass ([17]; 125 g ai/ha, scale 0 to 100): 0
Plant response rating, Barnyardgrass [17, 21]: 0
Plant response rating, Corn ([18]; 125 g ai/ha): 0
Plant response rating, Corn ([18]; 500 g ai/ha): 0
Plant response rating, Rice ([19]; 31 g ai/ha): 0
Plant response rating, Rice ([19]; 62 g ai/ha): 0
Plant response rating, Rice ([19]; 125 g ai/ha): 0
Plant response rating, Rice ([19]; 250 g ai/ha): 0
Plant response rating, Wheat ([20]; 125 g ai/ha): 0
Plant response rating, Wheat ([20]; 500 g ai/ha): 50
